Experimental data from paper PMC6773697, “Antileukemic activity of novel adenosine derivatives” (Scientific Reports, 2019).

System: dCK in HL-60 cells
Experiment: Deoxycytidine kinase activity, HL-60
Format: cell-based, human
Conditions: HL-60, 24 h incubation
Procedure: Deoxycytidine kinase activity was measured in accordance with the manufacturer’s protocol. The cells, at final concentration were plated at 1 × 10^6 cells per 24-well plates and cultured with the tested compounds for 24 h. Some cells were preincubated with an ATR kinase inhibitor (VE-821) for 1 h at 37 °C before adding the tested compounds. After drug treatment, the cells were washed with PBS and resuspended in an ice-cold cytosol extraction buffer containing 1 mM phenylmethylsulfonyl fluoride (PMSF) and a protease inhibitor cocktail. The cell lysate was centrifuged at 10,000 × g for 30 min at 4 °C. The protein concentration was determined using the Bradford method. The supernatant (cytosolic fraction) was collected and stored at −80 °C. The clarified cytoplasm extracts, dCK standards, and blank control were added to the appropriate microtiter plate wells with a biotin-conjugated polyclonal antibody prepared specifically for dCK. Avidin conjugated to horseradish peroxidase (HRP) was added to each microplate well and incubated. Then, a TMB substrate solution was added to the plate. […] The enzyme-substrate reaction was terminated by addition of a sulfuric acid solution. The color change was measured spectrophotometrically at a wavelength of 450 nm using a microplate reader (BioTek).

OC[C@H]1O[C@@H](n2cnc3c(N=CN4CCOCC4)nc(Cl)nc32)C[C@@H]1O [CLA-FMOR, [6-deamino-6-(N′, N′-3′-oxa-1′, 5′-pentamethyleneformamidine)] cladribine]
dCK activity: highest dCK activity
